Patent US20250108119A1, “NOVEL STEROID PAYLOADS, STEROID LINKERS, ADCs CONTAINING AND USE THEREOF” (IMMUNEXT, INC., priority 2021, published 2025)
Entries after “also recorded” stand apart in the source; their conditions may differ.

Tests used:
[1] = test system: peritoneal resident macrophages (PRM); test: In vivo treatment/ex vivo PRM activation, TNFα and IL-6 in supernatant; set-up: species or system hVISTA mice; conditions: linker/payloads as anti-VISTA conjugates
[2] = test system: human PBMC; test: Identification and quantification of released payload in human PBMC (MS); type: in vitro ADME; conditions: 4 hrs, same antibody
Procedure: In all the following experiments, human PBMC, isolated from 1 healthy donor per study, were treated with exemplary anti-VISTA glucocorticoid conjugates according to the invention to allow identification and quantification of the released payload.
In the present experiments, after incubating PBMC with glucocorticoid (GC) antibody drug conjugates (ADC) for 4h, cells were harvested and assessed for both FKBP5 transcription induction via quantitative real time PCR (qPCR) as well as assessed via mass spectrometry (MS) for released payload identification and quantification.
Isolated PBMCs were resuspended in RPMI 1640 containing 10% human AB serum, 10 mM Hepes, 1× Penicillin/Streptomycin/L-Glutamine (assay media).
PBMCs from 1 donor were washed 2× in PBS, and then resuspended at 1×10^7/mL in media. […]
Remaining cells for each treatment were dived into aliquots representing 50 million cells per aliquot (for metabolite quantification only one aliquot per condition was generated). […]
Media was removed from each cell pellet with the media then set aside at −80C until it could be assessed for the concentration of effluxed payload. […]
Briefly, pre-chilled 70% ACN (extraction buffer) was added to the PBMC pellets for extraction. […] was injected onto the LCMS (Luna C18 (2) column, Thermo Scientific Q Exactive Hybrid Quadrupole Orbitrap) and resulting masses assessed. […]

[3] = test system: human PBMC; test: Cytokine production (IL-1β, IL-6) at 24 hr by human PBMC incubated with 1 ng/mL LPS; type: cell-based; conditions: free steroid payloads, serial dilutions, 1 ng/mL LPS, 24 hr
Method in brief: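 Human PBMC were stimulated with 1 ng/mL LPS together with serial dilutions of steroid payloads or glucocorticoid conjugates, spanning up to 8,000 nM down to 0.032 nM depending on the series. IL-1β and IL-6 were measured at 24 hr from technical duplicates, with 1-2 donors. Values above the ULOQ were extrapolated.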

[4] = test system: LPS stimulated human PBMCs; test: LPS stimulated human PBMC, IL-1β and IL-6 ELISA; type: cell-based
Method in brief: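 Human PBMC (1-2 healthy donors), 150,000 cells/well, treated with test agents at 1,000 nM down to 1 nM or 0.2 nM, in duplicate. LPS at 1 ng/ml added immediately after free payload or 4 h after conjugates; IL-1β and IL-6 in supernatants measured by ELISA.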

[5] = test system: FKBP5; test: FKBP5 transcription in isolated human monocytes, B cells and Tregs; type: cell-based; conditions: Experiment 3: 20 nM payload, 2 donors
Excerpt: Monocytes or B cells were isolated from healthy donor blood samples and treated with free steroid, anti-VISTA conjugated steroid, or conjugated isotype control. RNA was isolated, and change in FKBP5 transcript level assessed by qPCR.
The various immune populations were isolated using different cell isolation kits and following manufacturer instructions: • EasySep Human monocyte enrichment kit without CD16 depletion (StemCell cat #19058) • Pan B cell isolation kit, human (Miltenyi Biotec, 130-101-638). • EasySep™ Human CD4+CD127 low CD49d-regulatory T cell enrichment Kit (StemCell cat #19232)
Monocytes, B cells or Tregs were plated (from single donors) at 2×10^6 cells per well in a 12-well plate in RPMI, 10% human AB serum, 10 mM Hepes, 1× Penicillin/Streptomycin/Glutamine.
For single dose experiments, cells were treated with 20 nM free J payload or INX-SM-3 payload or the molar payload equivalent of huIgG1si J, INX201J or INX231P (the linked form of INX-SM-3). […]
After one wash with PBS, RNA was isolated from cell pellets using either the RNeasy Plus Mini kit (Qiagen, PN: 74136) or NucleoSpin RNA Plus (Macherey-Nagel #740984.250). […] RNA concentration was assessed by UV spectroscopy using a Nanodrop 2000. […]
Quantitative Real-Time PCR was done using Taqman master mix 2× kit (#4369016) and run on a QuantStudio3 from Applied Biosystem. […]

[6] = biological target: CD163 on human blood cells (human) (UniProt Q86VB7); test: flow cytometry, AF647-labelled antibody, bead-calibrated; CD14+ monocytes, human PBMC, n=5 donors, mean±SD
Sequence of CD163 on human blood cells (human) (Q86VB7 42-1156): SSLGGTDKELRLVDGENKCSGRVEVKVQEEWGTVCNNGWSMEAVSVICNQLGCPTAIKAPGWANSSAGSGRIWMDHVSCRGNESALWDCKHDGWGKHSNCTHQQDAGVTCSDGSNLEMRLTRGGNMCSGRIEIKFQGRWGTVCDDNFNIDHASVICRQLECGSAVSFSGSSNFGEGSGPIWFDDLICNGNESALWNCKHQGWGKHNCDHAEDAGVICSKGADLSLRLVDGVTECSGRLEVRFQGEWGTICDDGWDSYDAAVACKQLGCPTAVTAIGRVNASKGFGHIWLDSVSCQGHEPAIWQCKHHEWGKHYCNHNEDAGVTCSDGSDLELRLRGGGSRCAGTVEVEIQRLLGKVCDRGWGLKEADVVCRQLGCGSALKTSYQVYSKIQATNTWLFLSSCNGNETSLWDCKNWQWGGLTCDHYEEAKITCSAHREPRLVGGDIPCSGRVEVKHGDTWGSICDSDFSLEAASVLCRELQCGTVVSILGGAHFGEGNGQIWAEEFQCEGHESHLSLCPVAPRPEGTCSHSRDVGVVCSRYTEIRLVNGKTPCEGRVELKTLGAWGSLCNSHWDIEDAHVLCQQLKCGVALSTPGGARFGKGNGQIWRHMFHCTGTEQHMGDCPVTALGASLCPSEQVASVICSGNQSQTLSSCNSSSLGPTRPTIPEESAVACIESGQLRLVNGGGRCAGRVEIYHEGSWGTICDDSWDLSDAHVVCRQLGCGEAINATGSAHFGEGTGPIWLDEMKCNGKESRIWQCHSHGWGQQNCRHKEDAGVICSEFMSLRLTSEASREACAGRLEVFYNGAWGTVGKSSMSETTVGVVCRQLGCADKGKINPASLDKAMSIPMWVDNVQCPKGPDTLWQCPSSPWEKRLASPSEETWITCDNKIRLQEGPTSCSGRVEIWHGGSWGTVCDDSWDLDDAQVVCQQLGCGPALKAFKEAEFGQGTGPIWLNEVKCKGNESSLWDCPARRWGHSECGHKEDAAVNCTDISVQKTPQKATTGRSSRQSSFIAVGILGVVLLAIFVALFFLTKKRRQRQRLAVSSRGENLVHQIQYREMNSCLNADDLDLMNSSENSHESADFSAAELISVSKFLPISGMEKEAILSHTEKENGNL

[7] = biological target: CD163 on human blood cells (human) (UniProt Q86VB7); test: flow cytometry, AF647-labelled antibody, bead-calibrated; CD14+ monocytes, human whole blood, n=3 donors, mean±SD
[8] = biological target: T1, human VISTA on cells (human, UniProt Q9H7M9 33-311); test: flow cytometry, AF488-labelled antibody on CD14+ monocytes of human PBMC, MFI normalised to INX200 at t=0
T1 sequence: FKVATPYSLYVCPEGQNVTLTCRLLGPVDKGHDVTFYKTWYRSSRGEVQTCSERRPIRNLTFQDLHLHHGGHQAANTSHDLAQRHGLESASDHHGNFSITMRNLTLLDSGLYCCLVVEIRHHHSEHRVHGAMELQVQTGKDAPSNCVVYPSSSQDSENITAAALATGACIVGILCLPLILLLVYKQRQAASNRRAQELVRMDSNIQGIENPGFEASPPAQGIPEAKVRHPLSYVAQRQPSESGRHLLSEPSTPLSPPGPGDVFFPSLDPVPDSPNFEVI

[9] = biological target: T1, human VISTA on cells; test: cell-based or functional assay
[10] = biological target: T2, hIX50 (human VISTA ECD, produced at Aragen Bioscience) (human, UniProt Q9H7M9 33-194, biotinylated in the pH ELISA (sites not given)); test: ELISA: hIX50 coated at 1 ug/mL; antibody titrated in PBS/Tween/BSA; mouse anti-human kappa-HRP/TMB; OD 450 nm.
T2 construct: also called hINX50; soluble VISTA
T2 sequence: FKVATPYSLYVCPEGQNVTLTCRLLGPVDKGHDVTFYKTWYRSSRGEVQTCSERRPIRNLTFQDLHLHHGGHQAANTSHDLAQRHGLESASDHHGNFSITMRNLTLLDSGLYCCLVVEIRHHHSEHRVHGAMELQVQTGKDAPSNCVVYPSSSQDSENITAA

[11] = biological target: T2, hIX50 (human VISTA ECD, produced at …); test: ELISA at pH 7.5: INX200 coated at 1 ug/mL; biotinylated hIX50 titrated at 0.001-1000 ng/mL; streptavidin-HRP/TMB; OD 450 nm. The value is a concentration of hIX50.

Molecule: C[C@]12C=CC(=O)C=C1CC[C@@H]1[C@@H]2[C@@H](O)C[C@@]2(C)[C@H]1C[C@H]1O[C@@H](c3ccc(CC45CC(NC(=O)[C@H](CCC(=O)O)NC(=O)CNC(=O)CBr)(C4)C5)cc3)O[C@]12C(=O)CO [INX P, (S)-4-(2-(2-bromoacetamido)acetamido)-5-((3-(4-((6aR,6bS,7S,8aS,8bS,10R,11aR,12aS,12bS)-7-hydroxy-8b-(2-hydroxyacetyl)-6a,8a-dimethyl-4-oxo-2,4,6a,6b,7,8,8a,8b,11a,12,12a,12b-dodecahydro-1H-naphtho[2′,1′:4,5]indeno[1,2-d][1,3]dioxol-10-yl)benzyl)bicycle[1.1.1]pentan-1-yl)amino)-5-oxopentanoic acid]
- potency in PRM cytokine model when dosed 7 days early (conclusions) [1]: show similar potency when dosed 7 days early
- released payload relative to INX J / INX231J [2]: ~3 ×

Molecule: C[C@]12C=CC(=O)C=C1CC[C@@H]1[C@@H]2[C@@H](O)C[C@@]2(C)[C@H]1C[C@H]1O[C@@H](c3ccc(CC45CC(N)(C4)C5)cc3)O[C@]12C(=O)CO [INX-SM-3, (6aR,6bS,7S,8aS,8bS,10R,11aR,12aS,12bS)-10-(4-((3-aminobicyclo[1.1.1]pentan-1-yl)methyl)phenyl)-7-hydroxy-8b-(2-hydroxyacetyl)-6a,8a-dimethyl-1,2,6a,6b,7,8,8a,8b,11a,12,12a,12b-dodecahydro-4H-naphtho[2′,1′:4,5]indeno[1,2-d][1,3]dioxol-4-one]
- inhibition of IL-1β production [3]: inhibit; also recorded: robust inhibition
- inhibition of IL-6 production [3]: inhibit
- inhibition of IL-1β and IL-6 production ([4]; Experiment 1: free payload 1000-1 nM, 1 ng/ml LPS, 24 hr, n=1 donor): inhibit both IL-1β and IL-6 production; also recorded: the most potent compound among these three
- inhibition of IL-1β production ([4]; Experiment 2: free payload 1000-1 nM, 24 hr, n=1 donor): show inhibition in IL-1β production; also recorded: again the most potent compound among these compounds tested
- inhibition of IL-1β production ([4]; Experiment 8: free payload 1000-0.5 nM): robust inhibition in IL-1B production
- FKBP5 transcription in Tregs [5]: lead to increased FKBP5 transcription

Molecule: CD163 Alexa Fluor 647 clone GHI/61 (BioLegend) (antibody)
- antibody binding capacity (ABC) (ABC (molecules per cell)) [6]: 36700
- antibody binding capacity (ABC) (ABC (molecules per cell)) [7]: 13100

Molecule: Human IgG1si (antibody)
- nonspecific signal at 0 min relative to INX200 (MFI, percent) [8]: 5.9%

B1: INX201J (other)
VH: QVQLVQSGAEVKKPGASVKVSCKASGYTFANYLIGWVRQAPGQRLEWMGDIYPGGGFISYNEKFKGRVTITRDTSASTAYMELSSLRSEDTAVYYCARRFDYGGYFFDYWGQGTLVTVSS
VL: DIVMTQSPLSLPVTPGEPASISCRSSQSIVHSNGNIYLEWYLQKPGQSPQLLIYKVSNRFSGVPDRFSGSGSGTDFTLKISRVEAEDVGVYYCFQGSHVPWTFGQGTKLEIK
modifications: linker/payload INX J on the interchain disulfide cysteines; linker/payload INX J (protease sensitive linker, budesonide analog INX J-2) on the interchain disulfide cysteines, DAR 8.0
- FKBP5 transcription (qRT-PCR) in isolated human Tregs, 20 nM payload, against conjugated isotype control [9]: 2.1 fold

B2: INX200 (antibody, human IgG1, V domains shown)
VH: QVQLVQSGAEVKKPGASVKVSCKASGYTFANYLIGWVRQAPGQRLEWMGDIYPGGGFISYNEKFKGRVTITRDTSASTAYMELSSLRSEDTAVYYCARRFDYGGYFFDYWGQGTLVTVSS
VL: DIVMTQSPLSLPVTPGEPASISCRSSQSIVHSNGNIYLEWYLQKPGQSPQLLIYKVSNRFSGVPDRFSGSGSGTDFTLKISRVEAEDVGVYYCFQGSHVPWTFGQGTKLEIK
notes: also called humanized anti-human VISTA antibody on a human IgG1/kappa backbone with L234A/L235A silencing mutations
- EC50 (read off the curve) [10]: ~8 ng/mL
- EC50 (read off the curve) [11]: ~0.7 ng/mL
